Reference: the NIST ThermoML archive (doi:10.1016/j.jct.2009.08.009)

Assay: xn = mol fraction of the nth substance listed
Conditions: 101 kPa, Liquid; for viscosity: Capillary tube (Ostwald / Ubbelohde) method; for speed of sound: Sing-around technique in a fixed-path interferometer; for mass density: Vibrating tube method

CCOCCOCCO [3,6-dioxa-1-octanol] + CCCCCCCCO
Conditions	mass density [kg/m3]	speed of sound [m/s]	viscosity [mPa·s]
293.15 K, x1 = 0.0518	832.339	1364.1	7.468
293.15 K, x1 = 0.1011	839.204	1363.5	6.913
293.15 K, x1 = 0.1625	848.155	1363.1	6.159
293.15 K, x1 = 0.1944	853.018	1363.7	5.913
293.15 K, x1 = 0.2538	862.076	1364.5	5.872
293.15 K, x1 = 0.3165	872.254	1365.7	5.104
293.15 K, x1 = 0.3685	880.933	1370.8	4.837
293.15 K, x1 = 0.4975	904.111	1377.4	4.361
293.15 K, x1 = 0.6048	925.139	1387.7	4.08
293.15 K, x1 = 0.7202	949.653	1399.5	3.846
293.15 K, x1 = 0.8165	971.878	1415.1	3.739
293.15 K, x1 = 0.9144	996.047	1349.4	3.66
293.15 K, x1 = 1	–	–	3.626
298.15 K, x1 = 0.0518	828.835	1347.1	6.198
298.15 K, x1 = 0.1011	835.659	1346.5	6.03
298.15 K, x1 = 0.1625	844.559	1346.3	5.405
298.15 K, x1 = 0.1944	849.396	1346.7	5.188
298.15 K, x1 = 0.2538	858.398	1347.6	4.799
298.15 K, x1 = 0.3165	868.522	1348.9	4.489
298.15 K, x1 = 0.3685	877.154	1354.1	4.279
298.15 K, x1 = 0.4975	900.211	1360.7	3.918
298.15 K, x1 = 0.6048	921.137	1370.9	3.612
298.15 K, x1 = 0.7202	945.535	1382.7	3.431
298.15 K, x1 = 0.8165	991.74	1398.2	3.328
298.15 K, x1 = 0.9144	938.234	1332.2	3.277
298.15 K, x1 = 1	–	–	3.278
303.15 K, x1 = 0.0518	825.317	1330.3	5.429
303.15 K, x1 = 0.1011	832.097	1329.8	5.005
303.15 K, x1 = 0.1625	840.951	1329.5	4.636
303.15 K, x1 = 0.1944	845.762	1329.6	4.404
303.15 K, x1 = 0.2538	854.713	1330.1	4.295
303.15 K, x1 = 0.3165	864.78	1330.9	3.845
303.15 K, x1 = 0.3685	873.364	1332.3	3.67
303.15 K, x1 = 0.4975	896.3	1337.5	3.396
303.15 K, x1 = 0.6048	917.122	1343.9	3.141
303.15 K, x1 = 0.7202	941.409	1354.3	3.045
303.15 K, x1 = 0.8165	963.444	1381.3	2.904
303.15 K, x1 = 0.9144	987.41	1315	2.848
303.15 K, x1 = 1	–	–	2.862
308.15 K, x1 = 0.0518	821.777	1313.7	4.542
308.15 K, x1 = 0.1011	828.522	1313.2	4.219
308.15 K, x1 = 0.1625	837.324	1312.9	3.897
308.15 K, x1 = 0.1944	842.106	1312.9	3.781
308.15 K, x1 = 0.2538	851.006	1313.5	3.548
308.15 K, x1 = 0.3165	861.019	1314.5	3.327
308.15 K, x1 = 0.3685	869.558	1315.7	3.169
308.15 K, x1 = 0.4975	892.371	1320.9	2.928
308.15 K, x1 = 0.6048	913.092	1327.4	2.721
308.15 K, x1 = 0.7202	937.267	1337.7	2.6
308.15 K, x1 = 0.8165	959.204	1349.3	2.532
308.15 K, x1 = 0.9144	983.069	1364.5	2.493
308.15 K, x1 = 1	–	–	2.507

CCCCCCO [hexan-1-ol] + CCOCCOCCO
x2 = 0
Conditions	viscosity [mPa·s]
293.15 K	4.963
298.15 K	4.439
303.15 K	3.675
308.15 K	3.108
